From ChEMBL document CHEMBL1201862, “PubChem BioAssay data set” (2004)
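96-well plates; 48 h exposure; 5 concentrations. Endpoints by linear interpolation between flanking doses. Not reached: highest tested concentration assigned. The concentration for 50% growth inhibition is given as GI50.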 Calls of active or inactive are those of the source. Cut-off read from the data, not from the text of the source: active = GI50 up to about 1.1 µM and inactive = higher.

Key:
Assay in all cases: NCI-60 cell line screen, 48 h
COLO 205 = test system: COLO 205
UACC-62 = test system: UACC-62
SF-539 = test system: SF-539
NCI-H522 = test system: NCI-H522
K562 = test system: K562
A549 = test system: A549
HCT-116 = test system: HCT-116
MCF7 = test system: MCF7
MOLT-4 = test system: MOLT-4
IGROV-1 = test system: IGROV-1
OVCAR-8 = test system: OVCAR-8
SK-MEL-28 = test system: SK-MEL-28
NCI/ADR-RES = test system: NCI/ADR-RES
U-251 = test system: U-251
NCI-H23 = test system: NCI-H23
T47D = test system: T47D
SNB-75 = test system: SNB-75
CAKI-1 = test system: CAKI-1
MDA-N = test system: MDA-N
HT-29 = test system: HT-29
CCRF-CEM = test system: CCRF-CEM
UO-31 = test system: UO-31
LOX IMVI = test system: LOX IMVI
SN12C = test system: SN12C
HOP-92 = test system: HOP-92
NCI-H460 = test system: NCI-H460
EKVX = test system: EKVX
PC-3 = test system: PC-3
786-0 = test system: 786-0
Hs-578T = test system: Hs-578T
SNB-19 = test system: SNB-19
ACHN = test system: ACHN
MDA-MB-435 = test system: MDA-MB-435
RXF 393 = test system: RXF 393
A498 = test system: A498
Malme-3M = test system: Malme-3M
KM12 = test system: KM12
OVCAR-5 = test system: OVCAR-5
SR = test system: SR
SF-268 = test system: SF-268
OVCAR-4 = test system: OVCAR-4
SK-MEL-2 = test system: SK-MEL-2
SK-MEL-5 = test system: SK-MEL-5
RPMI-8226 = test system: RPMI-8226
HCT-15 = test system: HCT-15
NCI-H226 = test system: NCI-H226
HL-60 = test system: HL-60
SW-620 = test system: SW-620
DU-145 = test system: DU-145
MDA-MB-231 = test system: MDA-MB-231
HCC 2998 = test system: HCC 2998
HOP-62 = test system: HOP-62
M14 = test system: M14
OVCAR-3 = test system: OVCAR-3
UACC-257 = test system: UACC-257
TK-10 = test system: TK-10
SK-OV-3 = test system: SK-OV-3
SF-295 = test system: SF-295

## CC(=O)C1=C(C)NC(=C(C#N)C#N)C(C#N)=C1
COLO 205
  GI50: > 100000 nM (inactive)
UACC-62
  GI50: > 100000 nM (inactive)
SF-539
  GI50: > 100000 nM (inactive)
NCI-H522
  GI50: > 100000 nM (inactive)
K562
  GI50: > 100000 nM (inactive)
A549
  GI50: > 100000 nM (inactive)
HCT-116
  GI50: > 100000 nM (inactive)
MCF7
  GI50: > 100000 nM (inactive)
MOLT-4
  GI50: > 100000 nM (inactive)
IGROV-1
  GI50: > 100000 nM (inactive)
OVCAR-8
  GI50: > 100000 nM (inactive)
SK-MEL-28
  GI50: > 100000 nM (inactive)
NCI/ADR-RES
  GI50: > 100000 nM (inactive)
U-251
  GI50: > 100000 nM (inactive)
NCI-H23
  GI50: > 100000 nM (inactive)
T47D
  GI50: > 100000 nM (inactive)
SNB-75
  GI50: > 100000 nM (inactive)
CAKI-1
  GI50: > 100000 nM (inactive)
MDA-N
  GI50: > 100000 nM (inactive)
HT-29
  GI50: > 100000 nM (inactive)
CCRF-CEM
  GI50: > 100000 nM (inactive)
UO-31
  GI50: > 100000 nM (inactive)
LOX IMVI
  GI50: > 100000 nM (inactive)
SN12C
  GI50: > 100000 nM (inactive)
HOP-92
  GI50: > 100000 nM (inactive)
NCI-H460
  GI50: > 100000 nM (inactive)
EKVX
  GI50: > 100000 nM (inactive)
PC-3
  GI50: > 100000 nM (inactive)
786-0
  GI50: > 100000 nM (inactive)
Hs-578T
  GI50: > 100000 nM (inactive)
SNB-19
  GI50: > 100000 nM (inactive)
ACHN
  GI50: > 100000 nM (inactive)
MDA-MB-435
  GI50: > 100000 nM (inactive)
RXF 393
  GI50: > 100000 nM (inactive)
A498
  GI50: > 100000 nM (inactive)
Malme-3M
  GI50: > 100000 nM (inactive)
KM12
  GI50: > 100000 nM (inactive)
OVCAR-5
  GI50: > 100000 nM (inactive)
SR
  GI50: > 100000 nM (inactive)
SF-268
  GI50: > 100000 nM (inactive)
OVCAR-4
  GI50: 3810 nM (inactive)
SK-MEL-2
  GI50: > 100000 nM (inactive)
SK-MEL-5
  GI50: > 100000 nM (inactive)
RPMI-8226
  GI50: > 100000 nM (inactive)
HCT-15
  GI50: > 100000 nM
NCI-H226
  GI50: > 100000 nM (inactive)
HL-60
  GI50: > 100000 nM (inactive)
SW-620
  GI50: > 100000 nM (inactive)
DU-145
  GI50: > 100000 nM (inactive)
MDA-MB-231
  GI50: > 100000 nM (inactive)
HCC 2998
  GI50: > 100000 nM (inactive)
HOP-62
  GI50: > 100000 nM (inactive)
M14
  GI50: > 100000 nM (inactive)

## N#CC(C#N)=C/C=C/c1c(Cl)cccc1Cl
COLO 205
  GI50: 1730 nM (inactive)
UACC-62
  GI50: 1500 nM (inactive)
SF-539
  GI50: 1280 nM (inactive)
NCI-H522
  GI50: 1650 nM (inactive)
K562
  GI50: 2550 nM (inactive)
A549
  GI50: 2750 nM (inactive)
HCT-116
  GI50: 1340 nM (inactive)
MCF7
  GI50: 1940 nM (inactive)
MOLT-4
  GI50: 1880 nM (inactive)
IGROV-1
  GI50: 2160 nM (inactive)
OVCAR-8
  GI50: 1530 nM (inactive)
SK-MEL-28
  GI50: 1640 nM (inactive)
NCI/ADR-RES
  GI50: 1960 nM (inactive)
U-251
  GI50: 1810 nM (inactive)
NCI-H23
  GI50: 1470 nM (inactive)
T47D
  GI50: 2240 nM (inactive)
SNB-75
  GI50: 2840 nM (inactive)
CAKI-1
  GI50: 1930 nM (inactive)
MDA-N
  GI50: 1620 nM (inactive)
HT-29
  GI50: 1700 nM (inactive)
CCRF-CEM
  GI50: 1340 nM (inactive)
UO-31
  GI50: 1840 nM (inactive)
LOX IMVI
  GI50: 1730 nM (inactive)
SN12C
  GI50: 1800 nM (inactive)
HOP-92
  GI50: 2420 nM (inactive)
NCI-H460
  GI50: 1870 nM (inactive)
EKVX
  GI50: 3330 nM (inactive)
PC-3
  GI50: 1810 nM (inactive)
786-0
  GI50: 1710 nM (inactive)
Hs-578T
  GI50: 1970 nM (inactive)
SNB-19
  GI50: 3780 nM (inactive)
ACHN
  GI50: 1600 nM (inactive)
MDA-MB-435
  GI50: 2140 nM (inactive)
RXF 393
  GI50: 1580 nM (inactive)
A498
  GI50: 2990 nM (inactive)
Malme-3M
  GI50: 1730 nM (inactive)
KM12
  GI50: 1580 nM (inactive)
OVCAR-3
  GI50: 2130 nM (inactive)
SR
  GI50: 1700 nM (inactive)
SF-268
  GI50: 1920 nM (inactive)
OVCAR-4
  GI50: 1720 nM (inactive)
SK-MEL-2
  GI50: 1700 nM (inactive)
UACC-257
  GI50: 1580 nM (inactive)
SK-MEL-5
  GI50: 1850 nM (inactive)
RPMI-8226
  GI50: 1780 nM (inactive)
HCT-15
  GI50: 1910 nM
NCI-H226
  GI50: 2450 nM (inactive)
TK-10
  GI50: 2700 nM (inactive)
HL-60
  GI50: 698 nM (active)
SK-OV-3
  GI50: 2560 nM (inactive)
SW-620
  GI50: 1920 nM (inactive)
SF-295
  GI50: 2070 nM (inactive)
DU-145
  GI50: 1710 nM (inactive)
MDA-MB-231
  GI50: 1850 nM (inactive)
HCC 2998
  GI50: 1840 nM (inactive)
HOP-62
  GI50: 2740 nM (inactive)
M14
  GI50: 1690 nM (inactive)
